In patent US11286231B2, “Hydrogen-bonding compounds, compositions comprising the same, and methods of preparing and using the same” (Wake Forest University Health Sciences, priority 2016, dated 2022):

Experiments:
[1] = Preliminary rheometer tensile stretch (stickiness) test of catechol amine hydrogel; assay type: physicochemical
Description: (§1) These increases were not observed in control groups. This gives validation to the activity of the newly added catechol components of the system. […] Following this observation we employed the rheometer using a customized protocol to apply a tensile stretch to hydrogels that had immobilized between the base and testing geometry of the rheometry. The geometry was brought into contact with the sample and lowered until 0.4 N normal force was reached by the load cell. At this point, the sample was allowed to equilibrate for 30 seconds, after which the rheometer applied constant displacement vertically at 5 um/s, raising the geometry 1000 um, during which time resistive force (“stickiness”) was measured by the load cell every second.

[2] = Preliminary rheology, shear elastic modulus G′ of modular HA hydrogel with catechol amine; assay type: physicochemical; settings: catechol amine bound to thiolated HA/gelatin hydrogel via thiol-alkyne, FIG. 1
Description: as §1
Mechanical bulk properties. Hydrogels will be formed in custom molded 12 mm dishes and assessed by rheology to determine bulk material shear elastic modulus. […]

C#CCNCc1ccc(O)c(O)c1 [Compound C1.1]
increase in tensile resistance ([1]; catechol amine containing hydrogel, 5 um/s, 1000 um, FIG. 2, preliminary): 3 fold | stickiness of hydrogel constructs during mechanical shear testing ([1]; qualitative): significantly more “stickiness” | G′ values of the hydrogel constructs (change) [2]: further increased the G′ values
